The source of these data is patent publication US12060338B2, “Benzothia(di)azepine compounds and their use as bile acid modulators” (Albireo AB, priority 2019, dated 2024).

One series deals with T1, Human LBAT (Homo sapiens, UniProt Q14973).
T1 construct: expressed in transfected cells; kept under Geneticin selection
T1 sequence (Q14973 1-349): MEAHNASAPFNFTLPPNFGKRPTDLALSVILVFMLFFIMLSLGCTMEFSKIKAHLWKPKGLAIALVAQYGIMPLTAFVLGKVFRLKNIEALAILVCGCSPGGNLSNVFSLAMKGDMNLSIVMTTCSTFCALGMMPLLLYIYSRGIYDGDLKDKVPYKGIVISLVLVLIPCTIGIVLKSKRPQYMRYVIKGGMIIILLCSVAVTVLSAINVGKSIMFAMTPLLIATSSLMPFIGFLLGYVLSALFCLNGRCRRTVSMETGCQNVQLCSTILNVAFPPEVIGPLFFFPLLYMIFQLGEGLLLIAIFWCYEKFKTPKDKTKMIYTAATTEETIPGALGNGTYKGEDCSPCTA
Kind of series: LBAT assay, 3H-taurocholic acid uptake in human LBAT-overexpressing cells. Type of series: cell-based. Particulars: read-out: hLBAT IC50. Here is the method: 20,000 cells (Human or Mouse LBAT-overexpressing cells) were seeded in 96-wells plate (Corning CLS3809) in 100 μL MEM-alpha medium (Gibco 12571-063) supplemented with 10% FBS (Gibco 10438026) containing Geneticin (Gibco 10131-027) (1 mg/mL) and incubated at 37° C. in 5% CO2 for 24 hours. After incubation, media was decanted from the wells and cells were washed two times with 300 μL of basal MEM-alpha medium (FBS-free). After decanting basal MEM-alpha medium each time, plates were tapped against paper towel to ensure maximum removal of residual media.
For human LBAT, incubation mix was prepared by adding test inhibitor dilutions (3-fold serial dilution in DMSO (Sigma D2650), 10 points) in MEM-alpha (without FBS) containing 0.3 μM 3H-taurocholic acid (ARC ART-1368) and 7.5 μM cold taurocholic acid (Sigma T4009) (maintaining 0.2% final DMSO concentration). For mouse LBAT, incubation mix was prepared by adding test inhibitor dilutions (3-fold serial dilution in DMSO, 10 points) in MEM-alpha (without FBS) containing 0.3 μM 3H-taurocholic acid and 25 μM cold taurocholic acid maintaining 0.2% final DMSO concentration).
50 μL of incubation mix containing test inhibitors was then added to the wells (in duplicate) and the plates were incubated for 20 minutes in a CO2 incubator at 37° C. After incubation, the reaction was stopped by keeping the plates on ice water mix for 2-3 minutes and then the incubation mix was aspirated completely from the wells. The wells were washed two times with 250 μL of chilled unlabelled 1 mM taurocholic acid dissolved in HEPES (Gibco 15630080)-buffered (10 mM) HBSS (Gibco 14175079) (pH 7.4). The plates were tapped against a paper towel after every wash to ensure maximum removal of blocking buffer.
100 μL of MicroScint-20 (PerkinElmer 6013621) was added to the wells and kept overnight at room temperature before reading the plates in TopCount NXT™ Microplate Scintillation and Luminescence Counter from PerkinElmer under 3H Test protocol (set at 120 seconds reading time per well, with normal plate orientation).
(§1) All test compounds were provided in powder form at room temperature. 10 mM DMSO stocks of the test compounds were prepared, aliquoted and stored at −20° C. From the 10 mM DMSO stock of the compounds, a 3-fold serial dilution in DMSO was prepared to get a total of 10 dilutions of the test compounds. 0.5 μL of this dilution in DMSO was added to 250 μL of FBS-free basal media containing 3H-taurocholic acid and cold taurocholic acid to prepare the incubation mixture.

Another series concerns the target T2, Human IBAT (Homo sapiens, UniProt Q12908).
T2 construct: expressed in transfected cells; kept under Puromycin selection
T2 sequence (Q12908 1-348): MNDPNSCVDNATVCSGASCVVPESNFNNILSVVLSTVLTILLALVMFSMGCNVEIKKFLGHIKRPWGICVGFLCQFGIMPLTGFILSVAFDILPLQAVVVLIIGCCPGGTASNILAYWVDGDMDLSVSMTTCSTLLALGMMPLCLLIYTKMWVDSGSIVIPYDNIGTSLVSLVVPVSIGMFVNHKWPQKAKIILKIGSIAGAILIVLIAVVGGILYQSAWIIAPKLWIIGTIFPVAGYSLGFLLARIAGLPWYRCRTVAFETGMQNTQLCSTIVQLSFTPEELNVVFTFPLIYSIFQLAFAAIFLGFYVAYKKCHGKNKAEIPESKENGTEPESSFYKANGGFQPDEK
In words: IBAT assay, 3H-taurocholic acid uptake in human IBAT-overexpressing cells. In kind it is cell-based. The note with it: read-out: hIBAT IC50. Here is the method:
10,000 cells (Human or Mouse IBAT-overexpressing cells) were seeded in 96-wells plate (Corning CLS3809) in 200 μL MEM-alpha medium (Gibco 12571-063) supplemented with 10% FBS (Gibco 10438026) containing Puromycin (Gibco A1113803) (10 μg/mL) and incubated at 37° C. in 5% CO2 for 48 hours. After incubation, media was decanted from the wells and cells were washed two times with 300 μL of basal MEM-alpha medium (FBS-free). After decanting basal MEM-alpha medium each time, plates were tapped against paper towel to ensure maximum removal of residual media.
Test inhibitor dilutions (highest test concentration being 10 μM, 3-fold serial dilution, 10 points) prepared in DMSO (Sigma D2650) were added in incubation mix (maintaining 0.2% final DMSO concentration) containing 0.25 μM 3H-taurocholic acid (ARC ART-1368) and 5 μM of cold taurocholic acid (Sigma T4009). 50 μL of incubation mix containing test inhibitors was then added to the wells (in duplicate) and the plates were incubated for 20 minutes in a CO2 incubator at 37° C. After incubation, the reaction was stopped by keeping the plates on ice water mix for 2-3 minutes and then the incubation mix was aspirated completely from the wells. The wells were washed two times with 250 μL of chilled unlabelled 1 mM taurocholic acid dissolved in HEPES (Gibco 15630080)-buffered (10 mM) HBSS (Gibco 14175079) (pH 7.4). The plates were tapped against a paper towel after every wash to ensure maximum removal of blocking buffer.
100 μL of MicroScint-20 (PerkinElmer 6013621) was added to the wells and kept overnight at room temperature before reading the plates in TopCount NXT™ Microplate Scintillation and Luminescence Counter from PerkinElmer under 3H Test protocol (set at 120 seconds reading time per well).
as §1

Series [1] can be described thus: Bidirectional permeability assay (Caco-2 cells). In kind it is in vitro ADME. Particulars: human; for Papp A→B at 120 min, 10 µM: Caco-2, pH 7.4, absorptive direction A2B; for Papp B→A at 120 min, 10 µM: Caco-2, pH 7.4, secretory direction B2A. An excerpt:
HepaRG-Based Assay Protocol
A general note: Passage across Caco-2 layers is used to estimate intestinal permeability.

Series [2] in a line: Bioavailability study in mice. In kind it is in vivo. The note with it: male, mouse, plasma, 1 mg/kg intravenous, 10 mg/kg oral. Here is the method:
(§2) Male mice (C57BL/6 or CD1) or Wistar rats of 8-10 weeks old were used. For each test compound, two groups of 3 animals each were used. One group was administered a single intravenous dose of 1 mg/kg (vehicle 100% DMSO) through the tail vein and the other group was administered a single oral dose of 10 mg/kg through gavage needle. The group that was administered an oral dose was fasted overnight. Blood samples were collected after 0.083, 0.25, 0.5, 1, 2, 4, 6, 8 and 24 hours following intravenous administration, and after 0.25, 0.5, 1, 2, 4, 6, 8 and 24 hours following oral administration. Blood samples were taken from saphenous vein. 0.2% EDTA was used as the anticoagulant. The samples were analyzed by a discovery grade bioanalytical method developed for the estimation of test compound in plasma, using an LC-MS/MS system.

Series [3] in a line: Bioavailability study in rats. In kind it is in vivo. The note with it: male, Wistar, plasma; rat; 1 mg/kg intravenous, 10 mg/kg oral. As for the experimental part:
as §2

The next series concerns urinary total bile acids. Kind of series: Urinary bile acid output in dogs. In kind it is in vivo. Particulars: male Beagle dogs, once daily for three days at 10 and 50 mg/kg. Here is the method: Male Beagle dogs were used in the study. Animals were dosed with the compound of Example 2 once daily for three days at 10 and 50 mg/kg, respectively. Basal urine samples were collected before study start by cystocentesis. Urine samples were then collected at 2 h and 8 h post-dosing on Day 1 and Day 3. Urine bile acids and urine creatinine analyses were performed at a clinical chemistry lab.

The structures appear in SMILES notation.

Usually IC50 stands for the concentration that gives 50% inhibition. One may read the Papp A→B as how fast a substance crosses the layer from the apical side. Read a low Papp A→B as slow passage. The Papp B→A is how fast a substance crosses the layer from the basolateral side. The bioavailability is dose-corrected exposure relative to a reference, in per cent. As to `CCCC[C@]1(C)CN(c2ccccc2)c2cc(SC)c(O/C=C(\F)C(=O)O)cc2S(=O)(=O)C1` (single isomer, unassigned) [Example 2], the figures for the concentration for half-maximal inhibition (IC50) on Human LBAT and at Human IBAT were 17.4 nM and 22.7 nM, respectively. For the same compound, in series [1], the apparent permeability from apical to basolateral (Papp A→B) at 120 min, 10 µM was determined as 3.6 ×10⁻⁶ cm/s. In series [1], this compound showed a Papp B→A at 120 min, 10 µM of 6.6 ×10⁻⁶ cm/s. For the same compound, the bioavailability in series [2] (C57BL/6 mice) is 15.7%; in series [2] (CD1 mice), 32.1 to 55.7%; in series [3], 34.5%. The “urinary total bile acids increase versus baseline” value in the series on urinary total bile acids is 5- to 10 fold.

Regarding `CCCC[C@@]1(C)CN(c2ccccc2)c2cc(SC)c(O/C=C(\F)C(=O)O)cc2S(=O)(=O)C1` (single isomer, unassigned) [Example 3], the half-maximal inhibitory concentration (IC50) at Human LBAT turned out to be 9.2 nM. Also, the IC50 on Human IBAT worked out at 735 nM. In series [1], this compound returned a Papp A→B at 120 min, 10 µM of 3.6 ×10⁻⁶ cm/s and a Papp B→A at 120 min, 10 µM of 9.3 ×10⁻⁶ cm/s.

For `CCCC1(C)CN(c2ccccc2)c2cc(SC)c(OC=CC(=O)O)cc2S(=O)(=O)C1` (single isomer, unassigned) [Example 5], the 50% inhibitory concentration (IC50) at Human LBAT was 32 nM.

Take `CCC[C@]1(C)CN(c2ccccc2)c2cc(SC)c(O/C=C/C(=O)O)cc2S(=O)(=O)C1` (single isomer, unassigned) [Example 6]: the IC50 on Human LBAT amounted to 1050 nM; at Human IBAT, 678 nM.

For the compound `CCC[C@]1(C)CN(c2ccccc2)c2cc(SC)c(O/C=C(\F)C(=O)O)cc2S(=O)(=O)C1` (single isomer, unassigned) [Example 8], the concentration for half-maximal inhibition (IC50) at Human LBAT is 5.2 nM. On Human IBAT, the IC50 is 465 nM. Besides, in series [1], the Papp A→B at 120 min, 10 µM amounted to 3.6 ×10⁻⁶ cm/s and the Papp B→A at 120 min, 10 µM worked out at 6.2 ×10⁻⁶ cm/s.

Consider `CCC[C@@]1(C)CN(c2ccccc2)c2cc(SC)c(O/C=C(\F)C(=O)O)cc2S(=O)(=O)C1` (single isomer, unassigned) [Example 9], for which the IC50 amounted to 56 nM at Human LBAT and 186 nM at Human IBAT.

In the case of `CCCCC1(C)CN(c2ccccc2)c2cc(SC)c(O/C=C(\F)C(=O)O)cc2S(=O)(=O)C1` (centres unmarked) [Example 1, (Z)-3-((3-buty-3-methyl-7-(methylthio)-1,1-dioxido-5-phenyl-2,3,4,5-tetrahydro-1,5-benzothiazepin-8-yl)oxy)-2-fluoroacrylic acid], the half-maximal inhibitory concentration (IC50) at Human LBAT is 14.4 nM; on Human IBAT it was 23.7 nM.

For `CCCC1(C)CN(c2ccccc2)c2cc(SC)c(O/C=C/C(=O)O)cc2S(=O)(=O)C1` (centres unmarked) [Example 4, (E)-3-((3-methyl-7-(methylthio)-1,1-dioxido-5-phenyl-3-propy-2,3,4,5-tetrahydro-1,5-benzothiazepin-8-yl)oxy)acrylic acid], the IC50 on Human LBAT was determined as 66 nM; on Human IBAT, 564 nM.

For the compound `CCCC1(C)CN(c2ccccc2)c2cc(SC)c(O/C=C(\F)C(=O)O)cc2S(=O)(=O)C1` (centres unmarked) [Example 7, (Z)-2-fluoro-3-((3-methyl-7-(methylthio)-1,1-dioxido-5-phenyl-3-propy-2,3,4,5-tetrahydro-1,5-benzothiazepin-8-yl)oxy)acrylic acid], the IC50 worked out at 23 nM on Human LBAT and 435 nM on Human IBAT.

With `CCC1(C)CN(c2ccccc2)c2cc(SC)c(O/C=C(\F)C(=O)O)cc2S(=O)(=O)C1` (centres unmarked) [Example 10, (Z)-3-((3-ethyl-3-methyl-7-(methylthio)-1,1-dioxido-5-phenyl-2,3,4,5-tetrahydro-1,5-benzothiazepin-8-yl)oxy)-2-fluoroacrylic acid], the IC50 is 83 nM at Human LBAT and 906 nM on Human IBAT.
